Results on two molecules are retold here after patent publication US11492321B2, “Method for producing capped 3-hydroxycarboxylic acids and their salts and esters” (IOI Oleo GmbH, priority 2019, dated 2022).

Series [1] is described as follows: Cleavage experiments in FaSSGF medium simulating the stomach. Type of series: in vitro ADME. The note with it: in the presence or absence of pancreatin. The source says:
(§1) By means of cleavage experiments it is shown that reaction products prepared according to the invention or mixtures thereof can be cleaved in the human gastrointestinal tract. The starting mixture used is, on the one hand, a 3-acetoxybutyric acid ethyl ester obtained and purified by the process according to the invention as described hereinabove and, on the other hand, in each case the 3-BHB ethyl esters capped in the 3-position with the carboxylic acid anhydride (heptanoic acid anhydride, lauric acid anhydride or oleic acid anhydride) obtained and purified by the process according to the invention as described hereinabove.
(§2) For the cleavage experiments under near-body conditions two media are investigated: • FaSSGF, which simulates the stomach • FaSSIF, which simulates the intestinal tract
(§3) Both media are from the company Biorelevant®, Ltd. in Great Britain. In addition, in some experiments porcine pancreas is added (Panzytrat® 40,000, Fa. Allergan).
(§4) Under FaSSIF conditions, a lower conversion using Panzytrat® takes place.

The nature of series [2]: Cleavage experiments in FaSSIF medium simulating the intestinal tract. The series is classed as in vitro ADME. The note with it: in the presence or absence of pancreatin.
Description: as §1, §2, §3, §4

The conditions of series [3]: even if several grams are taken; patients; cited from earlier work.

The structures appear in SMILES notation.

`CCOC(=O)CC(C)OC(C)=O` (stereo not drawn) [3-acetoxybutyric acid ethyl ester]: the “cleavage in gastric medium” value in series [1] is listed as “cleavage to 3-BHB in free form”. Also, in series [2], the “cleavage in intestinal medium” value was “cleavage to 3-BHB in free form”.
For `CC(O)CC(=O)O` (stereo not drawn) [3-hydroxybutyric acid], in series [3], the duration of ketosis entry is listed as “three to four”.
